From publication PMC9403976, “Elucidating the path to Plasmodium prolyl-tRNA synthetase inhibitors that overcome halofuginone resistance” (Nature Communications, 2022) come the findings set out here.

Assay [1] relates to P. falciparum Dd2-2D4 NCP26 selections S1-3. In words: ABS growth assay on bulk populations and clones from NCP26 resistance selections S1-3. As to conditions: for EC50: Plasmodium falciparum; for Fold-change Resistance: independent experiments. The format is cell-based, Plasmodium falciparum.
Experimental: In short, P. falciparum erythrocytic-stage parasites at 1% parasitemia and 1% hematocrit in RPMI + 0.5% Albumax were seeded at 40 μL/well in 384-well plates with test compounds in triplicate, dose-response format with 10 μM dihydroartemisinin as a kill-control and blank (no compound) wells as a growth-control. […] After 72 h, growth was quantified by measuring fluorescence (Molecular Devices SpectraMax iD5) following SYBR Green 1 staining. Data were analyzed in Excel and plotted in PRISM (V. 8.4.3–9.1.0, GraphPad).
This cycle was repeated for ~50 generations (~100 days), corresponding to 5–6 cycles of drug pressure.
Clonal parasites were isolated from each selection flask by limiting dilution of ring stage parasites in 96-well plates to an average of 0.8 and 0.2 parasites per well.
A further assay addresses HsProRS (Homo sapiens, UniProt P07814). In words: TR-FRET ligand displacement assay with tracer MAT379 (CoraFluor-1-Halo and anti-His6 antibody formats). The format is binding. Further details: made in house; host or cells: E. coli SoluBL-21. As to conditions: for normalized TR-FRET signal (Fig 2k): 15 pM HT-HsProRS; for normalized TR-FRET signal (dose-response replicates): SI Fig 15, titrating, listed as ProSA (25). On the technique in general: Time-resolved FRET reads energy transfer from a long-lived donor to a nearby acceptor.

For another assay, the system named is P. falciparum Dd2-2D4. In words: P. falciparum asexual blood stage (ABS) growth assay, SYBR Green, 72 h, wild-type parasites. The format is cell-based, Plasmodium falciparum. Conditions: for EC50: Plasmodium falciparum.
Where [2] appears, read: DD2, cell line S1 - Clone A8, read-out: EC50 [nM] mean.
Where [3] appears, read: DD2, cell line S2 - Clone A3, read-out: EC50 [nM] mean.
[4] abbreviates: DD2, cell line S2 - Clone B9, read-out: EC50 [nM] mean.
Setting [5] is: DD2, cell line S2 - Clone C5, read-out: EC50 [nM] mean.
The mark [6] stands for this setting: DD2, cell line S3 - Clone B3, read-out: EC50 [nM] mean.
[7] abbreviates: DD2, cell line S3 - Clone B7, read-out: EC50 [nM] mean.
The mark [8] stands for this setting: DD2, read-out: EC50 [nM] mean, cell line S3 - Clone B2.
The mark [9] stands for this setting: DD2, cell line S1 - bulk population, read-out: EC50 [nM] mean.
[10] abbreviates: DD2, cell line S2 - bulk population, read-out: EC50 [nM] mean.
The mark [11] stands for this setting: DD2, cell line S3 - bulk population, read-out: EC50 [nM] mean.
Setting [12] is: cell line Dd2-2D4 (parent), read-out: EC50 [nM] mean.

Several values for one entry are separate records, joined by “and”; a condition that tells them apart may be missing. Equal entries are not always repeated. Where two headings read alike, the source gives them in different places.

Chain of HsProRS (P07814 996-1512): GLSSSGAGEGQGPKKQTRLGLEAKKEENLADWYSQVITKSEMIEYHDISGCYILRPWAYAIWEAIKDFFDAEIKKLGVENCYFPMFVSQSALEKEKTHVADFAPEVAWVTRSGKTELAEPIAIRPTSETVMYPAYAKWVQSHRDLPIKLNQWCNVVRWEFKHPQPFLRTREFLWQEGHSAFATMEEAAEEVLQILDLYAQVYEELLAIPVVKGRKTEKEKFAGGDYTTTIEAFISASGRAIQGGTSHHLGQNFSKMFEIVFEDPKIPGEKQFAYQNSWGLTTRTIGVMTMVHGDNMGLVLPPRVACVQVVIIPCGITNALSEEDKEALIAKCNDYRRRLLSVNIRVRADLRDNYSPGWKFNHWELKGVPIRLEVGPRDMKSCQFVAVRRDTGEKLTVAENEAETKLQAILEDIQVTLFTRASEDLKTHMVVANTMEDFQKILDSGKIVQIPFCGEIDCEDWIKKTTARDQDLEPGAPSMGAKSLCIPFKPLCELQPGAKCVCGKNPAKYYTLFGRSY

As for `Nc1ncnc2c1ncn2[C@@H]1O[C@H](COS(=O)(=O)NC(=O)[C@@H]2CCCN2)[C@@H](O)[C@H]1O` [ProSA, reference compound], the EC50 in assay [1] (setting [2]) was determined as 258 nM; in assay [1] (setting [3]) it was 209 nM; in assay [1] (setting [4]), 267 nM; in assay [1] (setting [5]), 243 nM; in assay [1] (setting [6]), 593 nM; in assay [1] (setting [7]) it was 909 nM. The EC50 was 838 nM in assay [1] (setting [8]) and 151 nM in the assay with P. falciparum Dd2-2D4 (DD2, SI Fig 16b, values on -log scale, read-out: ABS - Dd2-2D4 (converted)). The “normalized TR-FRET signal (Fig 2k)” value on HsProRS (Log[inhibitor] (M) -10.319) is 9.27E-01 and 5.96E-01 and 5.68E-01 and 6.24E-01 and 7.95E-01 and 4.77E-01; on HsProRS (Log[inhibitor] (M) -10.921) it was 1.19E+00 and 1.45E+00 and 8.99E-01 and 1.44E+00; at HsProRS (Log[inhibitor] (M) -11.098), 1.29E+00 and 1.17E+00 and 7.99E-01 and 9.06E-01. Also, the “normalized TR-FRET signal (Fig 2i)” value on HsProRS (Log[inhibitor] (M) -8.208) was 2.86E-01 and 2.69E-01 and 2.23E-01; on HsProRS (Log[inhibitor] (M) -8.509), 5.48E-01 and 5.47E-01 and 6.11E-01; at HsProRS (Log[inhibitor] (M) -8.796) it was 8.53E-01 and 8.04E-01 and 8.09E-01; at HsProRS (Log[inhibitor] (M) -9.108), 9.05E-01 and 8.48E-01 and 8.77E-01; on HsProRS (Log[inhibitor] (M) -9.409) it was 8.95E-01. Moreover, the “normalized TR-FRET signal (Fig 2j)” value at HsProRS (Log[inhibitor] (M) -8.208) is 2.20E-01 and 2.14E-01 and 2.31E-01; on HsProRS (Log[inhibitor] (M) -8.509) it was 6.99E-01 and 6.28E-01 and 5.28E-01; on HsProRS (Log[inhibitor] (M) -8.796), 7.16E-01 and 7.19E-01 and 8.75E-01; on HsProRS (Log[inhibitor] (M) -9.108), 8.43E-01 and 8.74E-01 and 8.91E-01; on HsProRS (Log[inhibitor] (M) -10.602), 8.90E-01. In addition, the “normalized TR-FRET signal (dose-response replicates)” value on HsProRS (Log[inhibitor] (M) -7.601) was -6.47E-02 and -3.87E-03 and 4.40E-03; at HsProRS (Log[inhibitor] (M) -7.904) it was 4.29E-02 and -1.08E-01 and 6.52E-02; at HsProRS (Log[inhibitor] (M) -8.208), 2.09E-01 and 4.52E-01 and 3.79E-01; on HsProRS (Log[inhibitor] (M) -8.509), 6.59E-01 and 7.25E-01 and 6.81E-01; at HsProRS (Log[inhibitor] (M) -8.796), 8.90E-01 and 6.94E-01 and 8.02E-01; at HsProRS (Log[inhibitor] (M) -9.108), 8.78E-01 and 8.82E-01. The “normalized TR-FRET signal (dose-response replicates)” value at HsProRS (Log[inhibitor] (M) -10.301) is given as 9.09E-01; on HsProRS (Log[inhibitor] (M) -10.602), 1.29E+00; on HsProRS (Log[inhibitor] (M) -11), 9.02E-01.
Consider `C[C@H]1[C@@H](O)O[C@@H]2O[C@@]3(C)CC[C@H]4[C@H](C)CC[C@@H]1[C@@]24OO3` [Dihydroartemesinin (DHA)], for which the “Fold-change Resistance” value is 0.68 and 0.97 in assay [1] (S1 - Clone A8); 2.04 in assay [1] (S2 - Clone B9); 0.71 and 0.6 in assay [1] (S3 - Clone B3); 0.78 and 1.22 and 1 in the assay on P. falciparum Dd2-2D4 (Dd2-2D4, independent experiments).
Regarding `C[C@H]1[C@@H](O)O[C@@H]2O[C@@]3(C)CC[C@H]4[C@H](C)CC[C@@H]1[C@@]24OO3` [DHA, dihydroartemisinin, reference compound], the EC50 came out at 3.4 nM in assay [1] (setting [2]); 4.5 nM in assay [1] (setting [9]); 2 nM in assay [1] (setting [3]); 10.1 nM in assay [1] (setting [4]); 3.48 nM in assay [1] (setting [5]); 3.55 nM in assay [1] (setting [10]). Besides, the EC50 was found to be 3.51 nM in assay [1] (setting [6]); 3.12 nM in assay [1] (setting [7]); 3.44 nM in assay [1] (setting [11]); 8.34 nM in assay [1] (setting [8]); 4.95 nM with P. falciparum Dd2-2D4 (setting [12]).
Regarding `C[C@@H]1C[C@H](C)C[C@H](C)[C@@H](O)CC(=O)O[C@H]([C@@H]2CCC[C@H]2C(=O)O)C/C=C/C=C(/C#N)[C@H](O)[C@@H](C)C1` [Borrelidin, borrelidin, reference compound], the EC50 in assay [1] (setting [2]) was 1.5 nM; in assay [1] (setting [9]), 1.45 nM; in assay [1] (setting [3]), 1.6 nM; in assay [1] (setting [4]) it was 4.67 nM; in assay [1] (setting [5]), 1.51 nM; in assay [1] (setting [10]), 1.3 nM. The EC50 in assay [1] (setting [6]) amounted to 1.34 nM; in assay [1] (setting [7]) it was 1.38 nM; in assay [1] (setting [11]), 1.3 nM; in assay [1] (setting [8]), 5.92 nM; in the assay on P. falciparum Dd2-2D4 (setting [12]), 6.05 nM. The “Fold-change Resistance” value is 1.46 and 0.77 in assay [1] (S2 - Clone B9); 1.02 and 1.96 in assay [1] (S3 - Clone B2).
